Among the data in US20240408216A1, “PROTEIN INHIBITOR OR DEGRADING AGENT, PHARMACEUTICAL COMPOSITION CONTAINING SAME AND PHARMACEUTICAL USE” (JING MEDICINE TECHNOLOGY (SHANGHAI) LTD., priority 2021, published 2024) are IC50 values, retold here.

Structures are written as SMILES.

A word on the IC50: it is the concentration at which inhibition is half-maximal.

One test has as its system BaF3 (EGFR WT). In words: Cell proliferation IC50 assay (Cell Titer GLO), BaF3 WT cells. The format is cell-based. Particulars: Mus musculus, Ba/F3 EGFR, Table 5, 10 ng/ml EGF, 72 h. Summed up:
(§1)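 Growth inhibition is measured over 72 h of continuous compound treatment in cells seeded at 2000-4000 per well.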
(In general: Cellular ATP, detected with luciferase, serves as a proxy for viable cell number.)
The compound `CCc1cc(Nc2ncc(Cl)c(Nc3ccccc3P(C)(C)=O)n2)ccc1N1CCC(N2CCN(CCC#Cc3cccc4c3CN(C3CCC(=O)NC3=O)C4=O)CC2)CC1` (centres unmarked) [Example E9] gave a 50% inhibitory concentration (IC50) of 28.4 nM.

Turning to `COc1cc(N2CCC3(CCN(CCCC#Cc4cccc5c4CN(C4CCC(=O)NC4=O)C5=O)CC3)CC2)ccc1Nc1ncc(Cl)c(Nc2ccccc2P(C)(C)=O)n1` (centres unmarked) [Example C-1, reference compound], the IC50 was 380 nM.

With `CP(C)(=O)c1ccccc1Nc1nc(Nc2ccc(N3CCC4(CCN(CCCC#Cc5cccc6c5CN(C5CCC(=O)NC5=O)C6=O)CC4)CC3)c(Cl)c2)ncc1Cl` (centres unmarked) [Example E18], half-maximal inhibition (IC50) required 724 nM.

Consider `CCc1cc(Nc2ncc(Br)c(Nc3ccc4c(c3P(C)(C)=O)OCCO4)n2)c(OC)cc1N1CCC2(CCN(CCCC#Cc3cccc4c3CN(C3CCC(=O)NC3=O)C4=O)CC2)CC1` (centres unmarked) [Example E28], for which inhibition was half-maximal at 955 nM (IC50).

The compound `CCc1cc(Nc2ncc(Cl)c(Nc3ccccc3P(C)(C)=O)n2)c(OC)cc1N1CCC(N2CCC3(CCC(Oc4cccc5c4CN(C4CCC(=O)NC4=O)C5=O)CC3)C2)CC1` (centres unmarked) [Example E21] had an IC50 of 636 nM.

For `CCc1cc(Nc2ncc(Cl)c(Nc3ccccc3P(C)(C)=O)n2)c(OC)cc1N1CCC2(CCN(CCCC#Cc3ccc4c(c3)CN(C3CCC(=O)NC3=O)C4=O)CC2)CC1` (centres unmarked) [Example E16], the IC50 was > 4000 nM.

As for `COc1cc(N2CCC(N3CCC4(CCC(Oc5cccc6c5CN(C5CCC(=O)NC5=O)C6=O)CC4)C3)CC2)c(C2CC2)cc1Nc1ncc(Cl)c(Nc2ccccc2P(C)(C)=O)n1` (centres unmarked) [Example E27], it took 937 nM to reach half-maximal inhibition (IC50).

The subject of a further test is BaF3 (EGFR Del19/T790M/C797S). In words: Cell proliferation IC50 assay (Cell Titer GLO), BaF3 DTC cells. The test is classed as cell-based. Particulars: Mus musculus, Ba/F3 EGFR-Del19/T790M/C797S, Table 5, 72 h. In short, it runs like this: as §1
In the case of `CCc1cc(Nc2ncc(Cl)c(Nc3ccccc3P(C)(C)=O)n2)ccc1N1CCC(N2CCN(CCC#Cc3cccc4c3CN(C3CCC(=O)NC3=O)C4=O)CC2)CC1` (centres unmarked) [Example E9], half-maximal inhibition (IC50) was put at 5.6 nM.

`COc1cc(N2CCC3(CCN(CCCC#Cc4cccc5c4CN(C4CCC(=O)NC4=O)C5=O)CC3)CC2)ccc1Nc1ncc(Cl)c(Nc2ccccc2P(C)(C)=O)n1` (centres unmarked) [Example C-1, reference compound]: the IC50 is 28 nM.

With `CP(C)(=O)c1ccccc1Nc1nc(Nc2ccc(N3CCC4(CCN(CCCC#Cc5cccc6c5CN(C5CCC(=O)NC5=O)C6=O)CC4)CC3)c(Cl)c2)ncc1Cl` (centres unmarked) [Example E18], it took 30.9 nM to reach half-maximal inhibition (IC50).

On to `CCc1cc(Nc2ncc(Br)c(Nc3ccc4c(c3P(C)(C)=O)OCCO4)n2)c(OC)cc1N1CCC2(CCN(CCCC#Cc3cccc4c3CN(C3CCC(=O)NC3=O)C4=O)CC2)CC1` (centres unmarked) [Example E28], for which half-maximal inhibition (IC50) required 11.2 nM.

With `CCc1cc(Nc2ncc(Cl)c(Nc3ccccc3P(C)(C)=O)n2)c(OC)cc1N1CCC(N2CCC3(CCC(Oc4cccc5c4CN(C4CCC(=O)NC4=O)C5=O)CC3)C2)CC1` (centres unmarked) [Example E21], the IC50 was 1.9 nM.

`CCc1cc(Nc2ncc(Cl)c(Nc3ccccc3P(C)(C)=O)n2)c(OC)cc1N1CCC2(CCN(CCCC#Cc3ccc4c(c3)CN(C3CCC(=O)NC3=O)C4=O)CC2)CC1` (centres unmarked) [Example E16] gave an IC50 of 55.6 nM.

`COc1cc(N2CCC(N3CCC4(CCC(Oc5cccc6c5CN(C5CCC(=O)NC5=O)C6=O)CC4)C3)CC2)c(C2CC2)cc1Nc1ncc(Cl)c(Nc2ccccc2P(C)(C)=O)n1` (centres unmarked) [Example E27] showed an IC50 of 3.3 nM.

A further test relates to LT. In words: Cell proliferation IC50 assay (Cell Titer GLO), LT cells. The test is classed as cell-based. To be noted: Mus musculus; Table 7; LT cells (BaF3 with EGFR mutant), 72 h. The procedure:
(§2) IC50 of compounds in the present invention was determined by Cell Titer GLO reagent from Promega. The procedures are as follows:
(§3) Tumor cells were cultured in specified medium in an incubator at 37° C. and 5% CO2. The cells were passaged periodically. Cells at the logarithmic growth phase were collected for plating at a density of 2000-4000 cells/well. The next day, the compounds of the present invention were serially diluted and added to the cells, with DMSO being the negative control and the culture media without cells being the blank control. The plate was incubated in the incubator for 72 h. The cell viability assay was performed by adding the detection reagents to the cell culture media according to Cell Titer GLO reagent instructions and detecting luminescent signals on an EnVision microplate reader (PerkinElmer).
(§4) Inhibition of cell growth by the compounds of the present invention was plotted by Prism Graphpad software for statistically calculating the IC50 of the compound of the present invention.
Compound `COc1cc(N2CCC(N3CCN(CCC#Cc4cccc5c4CN(C4CCC(=O)NC4=O)C5=O)CC3)CC2)ccc1Nc1ncc(Cl)c(Nc2ccccc2P(C)(C)=O)n1` (centres unmarked) [Example C-2, reference compound] had an IC50 of 20.9 nM.

For the next test, the system named is BaF3 patent. In words: Cell proliferation IC50 assay (Cell Titer GLO), BaF3 parental cells. The format is cell-based. To be noted: Mus musculus, Table 5, 10 ng/ml mIL3, 72 h. The procedure: as §2, §3, §4
In the case of `CCc1cc(Nc2ncc(Cl)c(Nc3ccccc3P(C)(C)=O)n2)ccc1N1CCC(N2CCN(CCC#Cc3cccc4c3CN(C3CCC(=O)NC3=O)C4=O)CC2)CC1` (centres unmarked) [Example E9], the IC50 is 20.7 nM.

For `COc1cc(N2CCC3(CCN(CCCC#Cc4cccc5c4CN(C4CCC(=O)NC4=O)C5=O)CC3)CC2)ccc1Nc1ncc(Cl)c(Nc2ccccc2P(C)(C)=O)n1` (centres unmarked) [Example C-1, reference compound], the IC50 turned out to be 376 nM.

As for `CP(C)(=O)c1ccccc1Nc1nc(Nc2ccc(N3CCC4(CCN(CCCC#Cc5cccc6c5CN(C5CCC(=O)NC5=O)C6=O)CC4)CC3)c(Cl)c2)ncc1Cl` (centres unmarked) [Example E18], the half-inhibitory concentration (IC50) is 786 nM.

As for `CCc1cc(Nc2ncc(Br)c(Nc3ccc4c(c3P(C)(C)=O)OCCO4)n2)c(OC)cc1N1CCC2(CCN(CCCC#Cc3cccc4c3CN(C3CCC(=O)NC3=O)C4=O)CC2)CC1` (centres unmarked) [Example E28], the half-inhibitory concentration (IC50) came to 695 nM.

Consider `CCc1cc(Nc2ncc(Cl)c(Nc3ccccc3P(C)(C)=O)n2)c(OC)cc1N1CCC(N2CCC3(CCC(Oc4cccc5c4CN(C4CCC(=O)NC4=O)C5=O)CC3)C2)CC1` (centres unmarked) [Example E21], for which the IC50 amounted to 410 nM.

On to `CCc1cc(Nc2ncc(Cl)c(Nc3ccccc3P(C)(C)=O)n2)c(OC)cc1N1CCC2(CCN(CCCC#Cc3ccc4c(c3)CN(C3CCC(=O)NC3=O)C4=O)CC2)CC1` (centres unmarked) [Example E16], for which the IC50 is > 4000 nM.

`COc1cc(N2CCC(N3CCN(CCC#Cc4cccc5c4CN(C4CCC(=O)NC4=O)C5=O)CC3)CC2)ccc1Nc1ncc(Cl)c(Nc2ccccc2P(C)(C)=O)n1` (centres unmarked) [Example C-2, reference compound]: the IC50 is 73.8 nM.

For the compound `COc1cc(N2CCC(N3CCC4(CCC(Oc5cccc6c5CN(C5CCC(=O)NC5=O)C6=O)CC4)C3)CC2)c(C2CC2)cc1Nc1ncc(Cl)c(Nc2ccccc2P(C)(C)=O)n1` (centres unmarked) [Example E27], the IC50 is 375 nM.

The test system of another test is BaF3 (EGFR L858R/T790M/C797S). In words: Cell proliferation IC50 assay (Cell Titer GLO), BaF3 LTC cells. The test is classed as cell-based. Particulars: Mus musculus, Ba/F3 EGFR, Table 5, 72 h. Summed up: as §1
The compound `CCc1cc(Nc2ncc(Cl)c(Nc3ccccc3P(C)(C)=O)n2)ccc1N1CCC(N2CCN(CCC#Cc3cccc4c3CN(C3CCC(=O)NC3=O)C4=O)CC2)CC1` (centres unmarked) [Example E9] registered a half-maximal inhibitory concentration (IC50) of 11.2 nM.

Compound `COc1cc(N2CCC3(CCN(CCCC#Cc4cccc5c4CN(C4CCC(=O)NC4=O)C5=O)CC3)CC2)ccc1Nc1ncc(Cl)c(Nc2ccccc2P(C)(C)=O)n1` (centres unmarked) [Example C-1, reference compound] came in with an IC50 of 199 nM.

In turn, `CP(C)(=O)c1ccccc1Nc1nc(Nc2ccc(N3CCC4(CCN(CCCC#Cc5cccc6c5CN(C5CCC(=O)NC5=O)C6=O)CC4)CC3)c(Cl)c2)ncc1Cl` (centres unmarked) [Example E18] returned a concentration for half-maximal inhibition (IC50) of 266 nM.

`CCc1cc(Nc2ncc(Br)c(Nc3ccc4c(c3P(C)(C)=O)OCCO4)n2)c(OC)cc1N1CCC2(CCN(CCCC#Cc3cccc4c3CN(C3CCC(=O)NC3=O)C4=O)CC2)CC1` (centres unmarked) [Example E28]: the IC50 came out at 57.9 nM.

For `CCc1cc(Nc2ncc(Cl)c(Nc3ccccc3P(C)(C)=O)n2)c(OC)cc1N1CCC(N2CCC3(CCC(Oc4cccc5c4CN(C4CCC(=O)NC4=O)C5=O)CC3)C2)CC1` (centres unmarked) [Example E21], it took 16.8 nM to reach half-maximal inhibition (IC50).

Compound `CCc1cc(Nc2ncc(Cl)c(Nc3ccccc3P(C)(C)=O)n2)c(OC)cc1N1CCC2(CCN(CCCC#Cc3ccc4c(c3)CN(C3CCC(=O)NC3=O)C4=O)CC2)CC1` (centres unmarked) [Example E16] came in with an IC50 of 348 nM.

For `COc1cc(N2CCC(N3CCC4(CCC(Oc5cccc6c5CN(C5CCC(=O)NC5=O)C6=O)CC4)C3)CC2)c(C2CC2)cc1Nc1ncc(Cl)c(Nc2ccccc2P(C)(C)=O)n1` (centres unmarked) [Example E27], half-maximal inhibition (IC50) required 29.8 nM.

The subject of a further test is DT. In words: Cell proliferation IC50 assay (Cell Titer GLO), DT cells. To be noted: Mus musculus; Table 7; DT cells (BaF3 with EGFR mutant), 72 h. The test is classed as cell-based. The procedure:
as §2, §3, §4
For `COc1cc(N2CCC(N3CCN(CCC#Cc4cccc5c4CN(C4CCC(=O)NC4=O)C5=O)CC3)CC2)ccc1Nc1ncc(Cl)c(Nc2ccccc2P(C)(C)=O)n1` (centres unmarked) [Example C-2, reference compound], the IC50 is 13.3 nM.

A further test deals with A431. In words: Cell proliferation IC50 assay (Cell Titer GLO), A431 cells. The test is classed as cell-based. Particulars: Homo sapiens, A-431; Table 5; A431, 72 h; read-out: A431 IC50. In short, it runs like this: as §1
For `CCc1cc(Nc2ncc(Cl)c(Nc3ccccc3P(C)(C)=O)n2)ccc1N1CCC(N2CCN(CCC#Cc3cccc4c3CN(C3CCC(=O)NC3=O)C4=O)CC2)CC1` (centres unmarked) [Example E9], the IC50 came to 392 nM.

Take `COc1cc(N2CCC3(CCN(CCCC#Cc4cccc5c4CN(C4CCC(=O)NC4=O)C5=O)CC3)CC2)ccc1Nc1ncc(Cl)c(Nc2ccccc2P(C)(C)=O)n1` (centres unmarked) [Example C-1, reference compound]: the IC50 turned out to be 2820 nM.

For `CP(C)(=O)c1ccccc1Nc1nc(Nc2ccc(N3CCC4(CCN(CCCC#Cc5cccc6c5CN(C5CCC(=O)NC5=O)C6=O)CC4)CC3)c(Cl)c2)ncc1Cl` (centres unmarked) [Example E18], the IC50 came out at 2180 nM.

For the compound `CCc1cc(Nc2ncc(Br)c(Nc3ccc4c(c3P(C)(C)=O)OCCO4)n2)c(OC)cc1N1CCC2(CCN(CCCC#Cc3cccc4c3CN(C3CCC(=O)NC3=O)C4=O)CC2)CC1` (centres unmarked) [Example E28], the IC50 came to 1390 nM.

Consider `CCc1cc(Nc2ncc(Cl)c(Nc3ccccc3P(C)(C)=O)n2)c(OC)cc1N1CCC(N2CCC3(CCC(Oc4cccc5c4CN(C4CCC(=O)NC4=O)C5=O)CC3)C2)CC1` (centres unmarked) [Example E21], for which the IC50 came out at 1010 nM.

For the compound `CCc1cc(Nc2ncc(Cl)c(Nc3ccccc3P(C)(C)=O)n2)c(OC)cc1N1CCC2(CCN(CCCC#Cc3ccc4c(c3)CN(C3CCC(=O)NC3=O)C4=O)CC2)CC1` (centres unmarked) [Example E16], the concentration for half-maximal inhibition (IC50) is > 4000 nM.

`COc1cc(N2CCC(N3CCC4(CCC(Oc5cccc6c5CN(C5CCC(=O)NC5=O)C6=O)CC4)C3)CC2)c(C2CC2)cc1Nc1ncc(Cl)c(Nc2ccccc2P(C)(C)=O)n1` (centres unmarked) [Example E27]: the IC50 is 1190 nM.
